Assay results from paper PMC9408872, “Harmicens, Novel Harmine and Ferrocene Hybrids: Design, Synthesis and Biological Activity” (International Journal of Molecular Sciences, 2022).
Read-outs that look alike come from different tables or passages of the source.

Legend:
[1] = test system: P. falciparum 3D7 (CQ-sensitive) erythrocytic stages; assay: In vitro drug sensitivity assay (HRP2-ELISA) against erythrocytic stages, Pf3D7; type: cell-based; details: read-out: IC50 Pf3D7
Experimental: (§1) The in vitro activity of harmicens 20–37 against the erythrocytic stages of CQ-sensitive (Pf3D7) and multidrug-resistant (PfDd2) P. falciparum strains was evaluated following a previously described method (Table 1).
(§2) The antiplasmodial activity of harmicens 20–37 was evaluated against two strains of P. falciparum (3D7—CQ-sensitive, Dd2—multidrug-resistant) as previously described using the histidine-rich protein 2 (HRP2) assay. Briefly, 96-well plates were pre-coated with the tested compounds in a three-fold dilution before ring-stage parasites were added to complete the culture medium at a hematocrit of 1.5% and parasitemia of 0.05%. After three days of incubation at 37 °C, 5% CO2, and 5% oxygen, plates were frozen until HRP2-ELISA analysis. All compounds were evaluated in duplicate in at least two independent experiments. The IC50 was determined using a nonlinear regression analysis of log concentration–response curves using the drc-package v0.9.0 of R v2.6.1 (R Foundation, Vienna, Austria).

[2] = test system: P. falciparum Dd2 (multidrug-resistant) erythrocytic stages; assay: In vitro drug sensitivity assay (HRP2-ELISA) against erythrocytic stages, PfDd2; type: cell-based; details: read-out: IC50 PfDd2
Experimental: as §1, §2

[3] = test system: HepG2 (hepatocellular carcinoma); assay: MTT cytotoxicity assay, HepG2; type: cell-based, human; details: 72 h, MTT, mean ± SD, read-out: IC50 HepG2
Experimental: (§3) The parent compound harmine, as well as the reference drug 5-fluorouracil, were used as positive controls.
(§4) The experiments were carried out on five human cell lines purchased from American Type Culture Collection (ATCC): HepG2 (hepatocellular carcinoma; ATCC® HB-8065™), SW620 (colorectal adenocarcinoma; ATCC® CCL-227™), HCT116 (colorectal carcinoma; ATCC® CCL-247™), MCF-7 (breast adenocarcinoma; ATCC® HTB-22™), and Hek293T (embryonic kidney cells; ATCC® CRL-3216™). All cell lines were cultured as monolayers and maintained in Dulbecco’s Modified Eagle Medium (DMEM) (Capricorn Scientific, Ebsdorfergrund, Germany) supplemented with 10% fetal bovine serum (FBS) (Capricorn Scientific, Ebsdorfergrund, Germany), 100 U/mL penicillin, and 100 µg/mL streptomycin (Capricorn Scientific, Ebsdorfergrund, Germany) in a humidified atmosphere with 5% CO2 at 37 °C. Cells were seeded in 96-well plates (Corning, Durham, NC, USA) at 5000–7000 cells per well (depending on the cell-doubling time of a specific cell line) in 0.1 mL media and cultured for 24 h. The next day, the medium was aspirated, and cells were treated for 72 h. Only the compounds that led to more than a 50% reduction in mitochondrial metabolic activity at a concentration of 50 µM were selected for further analysis. The following concentrations of selected compounds were used: 25, 10, 5, and 1 µM. Working dilutions were freshly prepared on the day of the testing. A fresh growth medium was added to untreated control cells, which were defined as 100% viable. DMSO (0.13%) in DMEM was considered a negative control. 5-Fluorouracil (5-FU) and harmine were used as positive controls. At the end of treatment, the medium was removed, and cells were incubated for 1 h with 0.5 mg/mL MTT (Abcam, Cambridge, MA, USA) dissolved in serum-deprived DMEM. The MTT-containing medium was then removed, and 0.1 mL isopropanol was added per well to lyse cells and dissolve formazan. The optical density was measured at 570 nm using a microplate reader (VICTOR3, PerkinElmer, Waltham, MA, USA). Each test point was performed in triplicate. The absorbance was directly proportional to the cell viability. The IC50 values (concentration required to decrease viability by 50%) were calculated by using nonlinear regression on the sigmoidal dose–response plots and are expressed as mean ± SD.

[4] = test system: SW620 (colorectal adenocarcinoma); assay: MTT cytotoxicity assay, SW620; type: cell-based, human; details: 72 h, MTT, mean ± SD, read-out: IC50 SW620
Experimental: as §3, §4

[5] = test system: HCT116 (colorectal carcinoma); assay: MTT cytotoxicity assay, HCT116; type: cell-based, human; details: for IC50: 72 h, MTT, mean ± SD, read-out: IC50 HCT116; for SI (HCT116): selectivity index: ratio of IC50 Hek293T to IC50 HCT116
Experimental: as §3, §4

[6] = test system: MCF-7 (breast adenocarcinoma); assay: cells; details: for IC50: read-out: IC50 MCF-7; for SI (MCF-7): selectivity index: ratio of IC50 Hek293T to IC50 MCF-7
Experimental: as §3, §4

[7] = test system: Hek293T (embryonic kidney cells); assay: MTT cytotoxicity assay, Hek293T; type: cell-based, human; details: noncancer cell line, 72 h, MTT, mean ± SD, read-out: IC50 Hek293T
Experimental: as §3, §4

[8] = CQ-sensitive strain, three days incubation, mean ± SD
[9] = multidrug-resistant strain, three days incubation, mean ± SD

Compound	IC50 [1, 8] [µM]	IC50 [2, 9] [µM]	IC50 [3] [µM]	IC50 [4] [µM]	IC50 [5] [µM]	SI (HCT116) [5]	IC50 ([6]; 72 h, MTT, mean ± SD) [µM]	SI (MCF-7) [6]	IC50 [7] [µM]	IC50 ([1]; Plasmodium falciparum, 3D7, 72 h) [µM]	IC50 ([2]; Plasmodium falciparum, DD2, 72 h) [µM]	IC50 ([3]; Homo sapiens, HepG2) [µM]	IC50 ([4]; Homo sapiens, SW-620) [µM]	IC50 ([5]; Homo sapiens, HCT-116) [µM]	IC50 ([6]; Homo sapiens, MCF7, 72 h) [µM]	IC50 ([7]; Homo sapiens, HEK-293T) [µM]
Cc1nccc2c1[nH]c1cc(OCCNC(=O)[c-]3cccc3)ccc12.[Fe+2].c1cc[cH-]c1 [Compound 32, N-(2-((1-Methyl-9H-pyrido[3,4-b]indol-7-yl)oxy)ethyl)ferrocenecarboxamide]	0.3 ± 0.09	0.66 ± 0.01	15.6 ± 0.3	9.9 ± 4	6.6 ± 0.8	2.8	9.1 ± 1.4	2	18.6 ± 0.2							
Cc1nc(CNC(=O)C[c-]2cccc2)cc2c1[nH]c1ccccc12.[Fe+2].c1cc[cH-]c1 [Compound 35, N-((1-Methyl-9H-pyrido[3,4-b]indol-3-yl)methyl)-2-ferrocenylacetamide]	7.85 ± 2.18	13 ± 5.9	> 50	25 ± 8.1	20.9 ± 1.5	>2.4	36.9 ± 6.8	>1.4	> 50							
COc1ccc2c3ccnc(C)c3n(CCNC(=O)C[c-]3cccc3)c2c1.[Fe+2].c1cc[cH-]c1 [Compound 37, N-(2-(7-Methoxy-1-methyl-9H-pyrido[3,4-b]indol-9-yl)ethyl)-2-ferrocenylacetamide]	0.83 ± 0.23	1.8 ± 0.35	28 ± 2.5	9.9 ± 1.1	7.5 ± 0.4	4.1	13.2 ± 0.5	2.3	30.8 ± 2.4							
O=C(C[c-]1cccc1)NCc1nccc2c1[nH]c1ccccc12.[Fe+2].c1cc[cH-]c1 [Compound 34, N-((9H-Pyrido[3,4-b]indol-1-yl)methyl)-2-ferrocenylacetamide]	1.34 ± 0.09	1.11 ± 0.01	> 50	> 50	> 50	>1	> 50	>1	> 50							
CCN(CC)CCCC(C)Nc1ccnc2cc(Cl)ccc12 (stereo not drawn) [CQ, chloroquine, reference compound]										0.004 ± 0.002	0.29 ± 0.1					
Cc1nc(Cn2cc(-[c-]3cccc3)nn2)cc2c1[nH]c1ccccc12.[Fe+2].c1cc[cH-]c1 [Compound 21, 1-Methyl-3-((4-ferrocenyl-1H-1,2,3-triazol-1-yl)methyl)-9H-pyrido[3,4-b]indole]	7.14 ± 0.38	6.06 ± 1.36	> 50	19.7 ± 1.9	8.3 ± 1.4	>6	17.7 ± 0.6	>2.8	> 50							
9-((1-(Ferocenylmethyl)-1H-1,2,3-triazol-4-yl)methyl)-7-methoxy-1-methyl-9H-pyrido[3,4-b]indole [Compound 29]	2.12 ± 0.81	2.91 ± 0.05	> 50	> 50	14.6 ± 3.7	>3.4	> 50	>1	> 50							
O=c1[nH]cc(F)c(=O)[nH]1 [Compound 5-FU, 5-fluorouracil, reference compound]						1.6		0.3				5.5 ± 0.6	9.4 ± 0.3	5.2 ± 2.8	23.9 ± 5.7	8.1 ± 0.8
